≈ marks a conversion by molar mass, not a printed value.
Key:
[1] = molecular target: T1, epidermal growth factor receptor-tyrosine kinase complex (Homo sapiens, UniProt P00533); test: Tyrosine kinase inhibiting activity (A-431 membrane preparation, EGF-stimulated); assay type: biochemical; settings: read-out: Tyrosine kinase inhibition rate; for inhibition at 1 µM: 1 μM in the reaction mixture; for inhibition at 10 µM: 10 μM in the reaction mixture
T1 construct: The membrane preparation was employed in the following measurement without solubilization; endogenous in cells; host or cells: A-431 (ATCC CRL1555), membrane preparation, not solubilized
T1 sequence (P00533 25-1210, one chain of several): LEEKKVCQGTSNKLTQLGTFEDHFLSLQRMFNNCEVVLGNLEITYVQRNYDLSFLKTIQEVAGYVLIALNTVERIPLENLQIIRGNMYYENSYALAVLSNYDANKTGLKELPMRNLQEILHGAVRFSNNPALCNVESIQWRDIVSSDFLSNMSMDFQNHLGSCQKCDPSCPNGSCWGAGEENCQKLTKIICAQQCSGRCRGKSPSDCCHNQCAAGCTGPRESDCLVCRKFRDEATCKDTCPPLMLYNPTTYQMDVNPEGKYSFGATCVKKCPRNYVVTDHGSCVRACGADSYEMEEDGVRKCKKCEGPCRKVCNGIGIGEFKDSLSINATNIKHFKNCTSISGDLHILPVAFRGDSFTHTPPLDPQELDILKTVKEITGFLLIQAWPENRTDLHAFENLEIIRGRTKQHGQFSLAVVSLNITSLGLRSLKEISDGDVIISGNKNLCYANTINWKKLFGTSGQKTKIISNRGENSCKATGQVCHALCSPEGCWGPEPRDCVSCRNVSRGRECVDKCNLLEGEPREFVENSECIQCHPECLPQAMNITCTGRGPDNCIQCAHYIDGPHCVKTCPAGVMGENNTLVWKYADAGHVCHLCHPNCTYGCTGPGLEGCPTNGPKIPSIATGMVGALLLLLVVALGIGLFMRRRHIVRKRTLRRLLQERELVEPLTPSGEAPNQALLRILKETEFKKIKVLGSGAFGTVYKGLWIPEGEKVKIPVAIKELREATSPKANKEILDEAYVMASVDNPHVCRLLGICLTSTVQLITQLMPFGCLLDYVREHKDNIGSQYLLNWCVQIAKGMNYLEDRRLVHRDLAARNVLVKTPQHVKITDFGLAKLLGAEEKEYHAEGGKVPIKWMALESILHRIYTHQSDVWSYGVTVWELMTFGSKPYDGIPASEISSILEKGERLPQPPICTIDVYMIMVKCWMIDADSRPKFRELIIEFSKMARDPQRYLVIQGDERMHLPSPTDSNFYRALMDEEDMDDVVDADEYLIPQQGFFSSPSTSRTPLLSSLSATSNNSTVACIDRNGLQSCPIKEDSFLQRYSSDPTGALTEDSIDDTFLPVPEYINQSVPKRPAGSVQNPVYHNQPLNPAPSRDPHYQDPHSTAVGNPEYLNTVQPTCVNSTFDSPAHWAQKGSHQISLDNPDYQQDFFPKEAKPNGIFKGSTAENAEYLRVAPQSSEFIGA
Procedure: Tyrosine kinase inhibiting activity of the compound of the present invention was measured referring to a method for measuring tyrosine kinase activity by G. Carpenter or by S. Cohen et al. [J. Biol. Chem., 254, 4884(1979); J. Biol. Chem., 257, 1528(1982)].
Cell line A-431 derived from human carcinoma (ATCC CRL1555) was cultured at 37° C. under the condition of 5% CO2 in Dulbecco's modified Eagle's medium (made by NISSUE PHARMACEUTICAL CO., LTD.) containing 10% by volume fetal bovine serum, 50 μg/ml of streptomycin, 50 IU/ml of penicillin G and 50 μg/ml of kanamycin. […] The membrane preparation was employed in the following measurement without solubilization.
A test compound dissolved in dimethylsulfoxide (hereinafter referred to as "DMSO") was added to a mixture of 20 mM of N-2-hydroxyethylpiperazine-N'-2-ethanesulfonic acid buffer (pH 7.4), 1 mM of MnCl2, 7.5 μg of bovine serium albumin and the membrane preparation (10 μg as protein). After incubation at 0° C. for 5 minutes, 100 ng of epidermal growth factor (hereinafter referred to as "EGF") was added thereto and the mixture was further incubated at 0° C. for 15 minutes. [γ-^32 P]ATP (3000 Ci/mmol, 0.1 μCi) was added thereto to make final volume of 70 μl. After incubation at 0° C. for 15 minutes, 50 μl of the reaction mixture was soaked into Whatman 3 MM filter paper (made by Whatman Ltd.) and immediately the reaction was stopped by an aqueous solution of 10% by weight trichloroacetic acid containing 10 mM sodium pyrophosphate. The filter paper was sufficiently washed with the same solution and then washed with ethanol, and dried. Radioactivity present in the filter paper was measured by liquid scintillation counter (A). Also, radioactivity was measured in case of the reaction without EGF (B), the reaction without the test compound (C), and the reaction without both EGF and the test compound (D) as a control.
Tyrosine kinase inhibition rate (%) was calculated by the following equation. [formula]

[2] = molecular target: T2, reverse transcriptase derived from Moloney-Murine Leukemia Virus (M-MLV) (Moloney murine leukemia virus, UniProt P03355); test: Inhibiting activity against reverse transcriptase derived from M-MLV; assay type: biochemical; settings: read-out: Inhibition rate (reverse transcriptase derived from M-MLV); for inhibition at 10 µM: 10 μM in the reaction mixture
T2 construct: reverse transcriptase derived from Moloney-Murine Leukemia Virus; purchased Pharmacia K. K
Procedure: There was found the following point by using reverse transcriptase derived from Moloney-Murine Leukemia Virus (hereinafter referred to as "M-MLV").
The compound of the present invention was dissolved in DMSO to give a 100 mM solution thereof. Then, the solution was diluted with distilled water containing DMSO to give a solution of the test compound having a defined concentration. A mixed ratio of DMSO and distilled water was adjusted so that the concentration of DMSO at this time is 10% by volume and a final concentration of DMSO at the beginning of a reaction is 1% by volume.
The thus prepared solution of the test compound was mixed with a solution containing 50 mM of Tris--HCl buffer (pH 8.3), 8 mM of MgCl2, 30 mM of NaCl, 50 mM of dithiothreitol (made by Wako Pure Chemical Industries Ltd.), 0.2 mM of thymidine-5'-triphosphate (made by Pharmacia K. K.) and 6 U/ml of reverse transciptase derived from M-MLV (made by Pharmacia K. K.), and preincubated at 37° C. for 30 minutes. After there was added thereto 10 μg/ml of polyadenylic acid (made by PL Biochemicals Co., Ltd.), 0.01 U/ml of oligodeoxy thymidylic acid (made by Pharmacia K. K.) and 10 μCi/ml of [methyl-^3 H] thymidine-5'-triphosphate (made by Amersham Japan Co., Ltd., 47 Ci/mmol) to give a reaction mixture, the mixture was further incubated at 37° C. for 30 minutes, followed by cooling with ice to stop the reaction.
The radioactivity incorporated into deoxyribonucleic acids was measured according to the method of Linteril et al (Science 170, 447 to 449 (1967)). A defined volume of the reaction mixture was soaked into DE-81 filter paper (made by Whatman Ltd.), the filter paper was washed with 5% by weight of Na2 HPO4 solution for three times, and with distilled water and ethanol successively, and then dried. Radioactivity contained in the filter paper was measured by liquid scintillation counter to give the each radioactivity of the test solution groups.
On the other hand, the same procedure as above was carried out using DMSO-distilled water without the test compound instead of using the test solution, to give the value of radioactivity of a control group.
Reverse transcriptase derived from M-MLV inhibition rate (%) was calculated by the following equation. [formula]

[3] = molecular target: T3, 5-lipoxygenase (Cavia porcellus, UniProt A0A286X958); test: 5-Lipoxygenase inhibiting activity (5-HETE formation, cytosol of peritoneal exudate cells); assay type: biochemical, Hartley guinea pigs; settings: read-out: Inhibition rate (5-lipoxygenase); for inhibition at 1 µM: 1 μM in the reaction mixture; for inhibition at 10 µM: 10 μM in the reaction mixture
T3 construct: The cytosol fraction was used as an enzyme solution; from tissue; host or cells: peritoneal exudate cells of casein-injected Hartley guinea pigs, 105,000×g cytosol
T3 sequence (A0A286X958 1-674): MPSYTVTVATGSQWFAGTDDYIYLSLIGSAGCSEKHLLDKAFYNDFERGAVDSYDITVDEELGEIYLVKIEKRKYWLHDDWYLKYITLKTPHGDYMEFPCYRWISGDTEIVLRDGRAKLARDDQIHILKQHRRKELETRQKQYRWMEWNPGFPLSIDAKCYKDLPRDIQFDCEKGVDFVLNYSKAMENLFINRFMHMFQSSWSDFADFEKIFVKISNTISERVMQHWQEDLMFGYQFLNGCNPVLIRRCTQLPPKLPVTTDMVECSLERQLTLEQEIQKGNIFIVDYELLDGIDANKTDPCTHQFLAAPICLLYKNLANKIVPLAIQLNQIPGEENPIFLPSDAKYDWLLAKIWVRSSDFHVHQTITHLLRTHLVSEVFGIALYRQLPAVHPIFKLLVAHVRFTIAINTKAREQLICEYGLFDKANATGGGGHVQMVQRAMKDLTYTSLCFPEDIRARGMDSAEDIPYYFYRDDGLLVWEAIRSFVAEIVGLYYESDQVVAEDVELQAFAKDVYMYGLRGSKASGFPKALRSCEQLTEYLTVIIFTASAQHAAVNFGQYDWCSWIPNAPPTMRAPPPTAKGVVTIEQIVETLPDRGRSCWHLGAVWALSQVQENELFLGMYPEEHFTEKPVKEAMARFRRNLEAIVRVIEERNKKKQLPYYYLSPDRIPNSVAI
Procedure: 5-Lipoxygenase inhibiting activity of the compound of the present invention was measured referring to the method for measuring 5-lipoxygenase activity by K. Ochi et al. [Journal of Biological Chemistry (J. Biol. Chem.), 258, 5754(1983)].
Sterilized 2% solution of casein (pH 7) was injected intraperitoneally into Hartley guinea pigs in a volume of 5 ml/100 g body weight. Fifteen hours later, the guinea pigs were killed and peritoneal exudate cells thereof were collected. After the exudate cells were washed with 17 mM Tris--HCl buffer (pH 7.4) containing 0.74% ammonium to remove contaminating erythrocytes in the exudate cells suspension, the cells were washed with buffer A (130 mM NaCl, 1 mM EDTA, 25 mM sodium phosphate, pH 7.4). The washed cells were suspended in buffer B (50 mM sodium phosphate, 1 mM EDTA, 0.1% gelatin, pH 7.4) at 10^8 cells/ml, sonicated and centrifuged at 10,000×g for 20 minutes under the cold atmosphere. The obtained supernatant was further centrifuged at 105,000×g for 60 minutes under the cold atmosphere. The cytosol fraction was used as an enzyme solution.
The enzyme solution was preincubated with the […] in the presence of 1 mM CaCl2, 1 mM reduced gluthathione (GSH) and 2 mM ATP at 30° C. for 5 minutes in 0.2 ml of a reaction mixture and the mixture was further incubated at 30° C. for 5 minutes by adding 20 μM [1-^14 C] arachidonic acid (0.1 μCi) thereto. The test compounds were dissolved in ethanol to give the reaction mixture containing 2% ethanol as a final concentration. Only ethanol was added to the reaction mixture as a control group.
To the reaction mixture were added 2.5 ml of a mixture of chloroform and methanol (2/1 by volume) and 0.3 ml of 40 mM citric acid to stop the reaction. The mixture was vortexed and an organic solvent layer was evaporated to dryness under nitrogen gas. After dissolving the dried organic layer in a fixed amount of the mixture of chloroform and methanol (2/1 by volume), it was spotted on a silica gel plate (Kiesel gel 60F254, E. Merck) and products were separated using a developer (the organic solvent layer of ethyl acetate/water/2,2,4-trimethylpentane/acetic acid=11/10/5/2 by volume). After the radioactive position of the product was determined by means of a radioautography, an area equivalent to that of 5-hydroxyeicosatetraenoic acid (hereinafter referred to as "5-HETE") was scraped off, and then its radioactivity was measured with a liquid scintillation counter. With regarding the amount of the generated 5-HETE as the 5-lipoxygenase inhibiting activity, the inhibition rate (%) in comparison with the control group was calculated according to the following equation. [formula]

[4] = test system: antigen-induced airway constriction; test: Inhibitory activity against antigen-induced airway constriction in actively sensitized guinea pigs; assay type: in vivo; settings: Cavia porcellus, iv, 3 minutes before antigen inhalation, read-out: Inhibition rate (airway constriction)
Procedure: (3) Inhibitory activity against antigen-induced airway constriction in actively sensitized guinea pigs
That is, the sensitized guinea pigs (5 guinea pigs/group) were provided with artificial respiration by inserting a tracheal cannula under urethane anesthesia (1.5 g/kg body weight, intraperitoneal administration), and then, gallamine at 1 mg/kg body weight was injected intravenously to stop spontaneous respiration of the guinea pigs. Inhalation of 0.5% aqueous solution of ovalbumin was conducted using a nebulizer for 1 minute to increase antigen-induced airway constriction, at the same time, airway pressure was recorded through a transducer. Test compound was administered into jugular vein (i.v.) of the guinea pig 3 minutes before the antigen inhalation or administered orally (p.o.) 2 hours before the antigen inhalation. As a positive control compound, theophylline which was a drug for anti-asthma was used. The effect of the compound was estimated by calculating the maximum value of airway constriction (%) in comparison with the control group, according to the following equation. [formula]

[5] = test system: Nycobacterium smegmatis ATCC 607; test: Antibacterial activity (MIC) against acid-fast bacteria; assay type: cell-based; settings: 37° C., 40 to 42 hours
Procedure: As for acid-fast bacteria, after cultured in glycerol broth medium, there was prepared a bacterial suspension for inoculation containing about 10^6 of the bacteria per 1 ml of the medium. On the other hand, there were prepared some glycerol Czapek agar plating media with adding the test compounds, and thereto the bacterial suspension for inoculation was streaked.

| Structure (SMILES) | inhibition at 1 µM [1] [%] | inhibition at 1 µM [3] [%] | further results |
| --- | --- | --- | --- |
| O=C1Nc2ccccc2C1=Cc1cc(-c2ccccc2)c(O)c(-c2ccccc2)c1 [Compound 3] | 45 | – | – |
| O=C1Nc2ccccc2S(=O)(=O)C1=Cc1cc(Cc2ccccc2)c(O)c(Cc2ccccc2)c1 [Compound 5] | 42 | – | inhibition at 10 µM [2]: 87% |
| CCOc1cc(C=C2SC(=S)NC2=O)cc(CSc2ccccc2)c1O [Compound 6] | – | – | inhibition at 10 µM [2]: 98% |
| O=C1Nc2ccccc2C1=Cc1cc(CSc2ccccc2)c(O)c(OCc2ccccc2)c1 [Compound 12] | – | 84 | inhibition in vivo at 1 mg/kg [4]: 32%; inhibition at 10 µM [1]: 30% |
| COc1cc(C=C2C(=O)Nc3ccccc32)cc(Cc2ccccc2)c1O [Compound 13] | – | 86 | – |
| CCCCOc1cc(C=C2C(=O)Nc3ccccc32)cc(Cc2ccccc2)c1O [Compound 14] | 43 | 27 | – |
| O=C1OCCC1=Cc1cc(Cc2ccccc2)c(O)c(Cc2ccccc2)c1 [Compound 17] | 25 | – | – |
| O=C1N=C(NCc2ccco2)SC1=Cc1cc(O)c(O)c(CSc2ccccc2)c1 [Compound 27] | 58 | – | inhibition at 1 µM ([2]; 1 μM in the reaction mixture): 73% |
| CC(C)c1cc(C=C2SC(NCc3ccc([N+](=O)[O-])cc3)=NC2=O)cc(C(C)C)c1O [Compound 40] | – | – | inhibition at 10 µM [3]: 87%; inhibition at 10 µM [1]: 21% |

Second part, led by results:

| inhibition at 1 µM [1] [%] | inhibition at 1 µM [3] [%] | Structure (SMILES) | further results |
| --- | --- | --- | --- |
| 98 | – | CCOc1cc(C=C(C#N)C(N)=O)cc(Cc2ccccc2)c1O [Compound 21] | – |
| 84 | – | COc1cc(C=C(C#N)C(N)=O)cc(Cc2ccccc2)c1O [Compound 22] | inhibition at 10 µM [3]: 63% |
| – | 23 | O=C1N=C(NCc2ccccc2)SC1=Cc1cc(-c2ccccc2)c(O)c(-c2ccccc2)c1 [Compound 25] | inhibition at 10 µM [1]: 72% |
| 66 | – | CCOc1cc(C=C2SC(NCc3ccccc3)=NC2=O)cc(CSc2ccccc2)c1O [Compound 28] | MIC [5]: ≤ 15 µg/mL |
| 63 | 86 | CCCCOc1cc(C=C2SC(NCc3ccccc3)=NC2=O)cc(CSc2ccccc2)c1O [Compound 29] | – |
| 70 | 87 | CCCCOc1cc(C=C2SC(NCc3ccccc3)=NC2=O)cc(Cc2ccccc2)c1O [Compound 30] | MIC [5]: ≤ 6 µg/mL |
| – | 53 | CC(C)c1cc(C=C2SC(NCc3ccco3)=NC2=O)cc(C(C)C)c1O [Compound 43] | inhibition in vivo at 5 mg/kg ([4]; 5 mg/kg): 21%; inhibition at 10 µM [1]: 95% |
| 80 | – | CC(C)c1cc(C=C2SC(NCc3cccs3)=NC2=O)cc(C(C)C)c1O [Compound 44] | MIC [5]: ≤ 6 µg/mL |
| – | 36 | CC(C)c1cc(C=C2SC(NCc3ccccn3)=NC2=O)cc(C(C)C)c1O [Compound 45] | MIC [5]: 2 µg/mL (≈ 5.06 µM); inhibition in vivo at 1 mg/kg [4]: 42%; inhibition at 10 µM [1]: 90% |

— US5089516A, “1-phenyl-3,5-pyrazolidinedione hydroxystyrene compounds which have tyrosine kinase inhibiting activity” (Kanegafuchi Kagaku Kogyo Kabushiki Kaisha, priority 1987, dated 1992)
